In test [1] the test system is IBD induced by administration of dextran sulfate sodium (DSS). Kind of test: Blood in stool, DSS-induced IBD in mice. The settings on record: for Blood in stool: DSS in drinking water for five days, test substance orally from the sixth day. On the set-up: key to Blood in stool: + Blood in stool; − No blood in stool. It counts as in vivo. Here is the method: (§1) For five groups of 12 mice each (only 3 mice in the control), the experimental routine procedure frequently used in connection with the treatment of IBD was carried out, in which IBD is induced by administration of dextran sulfate sodium (DSS). This involved administering DSS in drinking water for five days (but not in the control group), and after that the particular test substance was administered orally. On the tenth day, the mice were sacrificed using CO2 and the colon was removed for examination. The individual groups were as follows:
Group 2: received only DSS.
Group 3: (GHC1) received DSS as described above and, from the sixth day, a clinoptilolite freed of heavy metals which was ground to a mean particle size of 3.5 μm and thus not in accordance with the invention.
Group 4: (GHC2) received, from the sixth day, the substance according to the invention.
Group 5: (5ASA) received, from the sixth day, sulfasalazine, a derivative of mesalazine, also termed 5-ASA.

Test [2] has the same test system. The experiment in a line: Stool consistency (stool score), DSS-induced IBD in mice. It counts as in vivo. The settings on record: tenth day, FIG. 2. As to the method:
(§2) For five groups of 12 mice each (only 3 mice in the control), the experimental routine procedure frequently used in connection with the treatment of IBD was carried out, in which IBD is induced by administration of dextran sulfate sodium (DSS). This involved administering DSS in drinking water for five days (but not in the control group), and after that the particular test substance was administered orally. On the tenth day, the mice were sacrificed using CO2 and the colon was removed for examination.

Another test concerns intestinal epithelium. The experiment in a line: Histological analysis (hematoxylin and eosin staining) and colon damage score. It counts as in vivo, mice. As to the method: as §2
Another test relates to TNF-α. Kind of test: TNF-α mRNA by RT-PCR in intestinal tissue homogenates. It counts as in vivo, mice. As to conditions: FIG. 10. As to the method:
as §1
To objectify and quantify the effects determined from the histological examinations, further analyses of biochemical inflammation markers (TNF-α/IL-6/IL-1β mRNA by means of RT-PCR, MPO activity) from tissue homogenates of the relevant intestinal segments were carried out.
Two further proinflammatory cytokines were examined; the results are shown in FIG. 9 (IL-6) and 10 (TNF-α). Said figures show: • 2expΔΔct=the rise in expression for a particular gene (1=1×, 2=2×, etc.); • Control=control group; • DSS1.5=group 2; • DSS1.5+GHC1=group 3; • DSS1.5+GHC2=(inventive) group 4; • DSS1.5+5ASA=group 5; • **=a very significant difference in relation to the control group (control); • #=a significant difference in relation to the DDS1.5 group (group 2); • ##=a very significant difference in relation to the DDS1.5 group (group 2).

The record followed here is patent US9439927B2, “Treatment of inflammatory bowel disease” (Glock Health GmbH, priority 2013, dated 2016).

Turning to `O=C(O)c1cc(/N=N/c2ccc(S(=O)(=O)Nc3ccccn3)cc2)ccc1O` [5ASA, sulfasalazine], the Blood in stool entry is “−” in test [1] (day 0); “−” in test [1] (day 2); “−” in test [1] (day 4); “+” in test [1] (day 6); “−” in test [1] (day 8); “−” in test [1] (day 10). The “Days on which blood in stool was exhibited” value in test [1] (text summary of Table I) is recorded as “only on the sixth day”. The “Stool consistency, return to normal range” value in test [2] was “completely within the normal range”. Besides, the “Healing of the intestinal epithelium (histology)” value with intestinal epithelium (hematoxylin and eosin staining, day 10, FIG. 5) was “distinctly improved healing of the intestinal epithelium”. In the test with intestinal epithelium (histo(patho)logical examinations, FIG. 6), the Colon damage score result is “good convergence”. In addition, in the test with TNF-α, the “TNF-α expression (2expΔΔct)” value was “does not show a positive effect”.
